Experimental data from US20200038314A1, “PROCESS FOR PREVENTING OR SLOWING THE APPEARANCE OF UNATTRACTIVE SIGNS, GENERATED BY POLLUTANTS PRESENT IN THE ATMOSPHERE, ON THE SKIN, THE SCALP, THE HAIR OR THE MUCOUS MEMBRANES” (SOCIETE D'EXPLOITATION DE PRODUITS POUR LES INDUSTRIES …, priority 2016, published 2020).

Tests used:
Type in all cases: cell-based
Human keratinocytes [1] = assay: DNA assay by the Hoechst method on cadmium-exposed keratinocyte culture; conditions: product 24 h then cadmium 35 μM 24 h, sulforaphane at 1 μM, Extract A at 0.5%
Protocol: (§1) Principle of the evaluation: evaluation of the effects of an exposure to cadmium on a keratinocyte culture.
(§2) Protocol: Human keratinocytes are cultured in a 96-well culture plate. After a few days of culture, the products evaluated, namely the Extract A at 0.5% by weight and sulforaphane (a positive reference known to those skilled in the art), are applied in the culture medium. At the end of incubation for 24 hours, the cells are exposed to a solution of cadmium at 35 μM for 24 hours, then 24 hours later, the following various evaluations are carried out: • evaluation of the cell viability by means of a DNA assay by the Hoechst method • evaluation of the cell metabolism by means of a protein assay by the BCA method; • evaluation of the inflammatory component by means of an assay for the cytokines IL-1a and IL-8.

cytokine IL-1α = assay: assay for the cytokine IL-1α in cadmium-exposed keratinocyte culture; conditions: human keratinocytes, product 24 h then cadmium 35 μM 24 h; sulforaphane at 1 μM, Extract A at 0.5%
Protocol: as §1, §2

cytokine IL-8 = assay: assay for the cytokine IL-8 in cadmium-exposed keratinocyte culture; conditions: human keratinocytes, product 24 h then cadmium 35 μM 24 h; sulforaphane at 1 μM, Extract A at 0.5%
Protocol: as §1, §2

Human keratinocytes [2] = assay: protein assay by the BCA method on cadmium-exposed keratinocyte culture; conditions: product 24 h then cadmium 35 μM 24 h, sulforaphane at 1 μM, Extract A at 0.5%
Protocol: as §1, §2

With `C[S+]([O-])CCCCN=C=S` (stereo not shown) [sulforaphane] the “Mean values of the expressed DNA” value (Human keratinocytes [1]) was 6.7 µg/mL, the “Mean values of IL-1α expressed” value (cytokine IL-1α) was 0.8238 pg/μg of proteins and the “Mean values of IL-8 expressed” value (cytokine IL-8) was 3.7081 pg/μg of proteins. For the same compound, the “Mean values of the expressed proteins” value (Human keratinocytes [2]) was 156.7 µg/mL.
